PMC11505670, “Four newly synthesized enones induce mitochondrial-mediated apoptosis and G2/M cell cycle arrest in colorectal and cervical cancer cells” (RSC Advances, 2024)

What was measured:
Format in all cases: cell-based, human
HeLa cells [1] = experiment: MTT cytotoxicity assay, HeLa; conditions: for IC50: MTT; for Selectivity index (SI): IC50 healthy cells (MRC-5)/IC50 tumor cells; for Cytotoxicity range: concentration range 1–100 μM
Description: (§1) To examine and compare the antiproliferative activities of four enones, the cytotoxicity of the compounds was assessed by the 3-(4,5-dimethylthiazol-2-yl)-2,5-diphenyltetrazolium bromide (MTT) assay[9] in, colon cancer cells (HCT-116), cervical cancer cell line (HeLa) and human fibroblast lung cell line (MRC-5) that was used as a healthy control cell line. After trypsinization, seeded (5 × 10^3 cells per well in 96-well plates) cells were treated with different concentrations of the investigated enones (1, 3, 10, 30, and 100 μM) during 48 and 72 h period incubation period +37 °C and 5–6.5% CO2. After the incubation period, the medium was removed and MTT solution (5 mg ml^−1) was added to the wells.
(§2) After a 3 hour incubation with the MTT solution, the resulting formazan crystals were dissolved in DMSO (67-68-5, Merck). Absorbance was subsequently measured at 595 nm using a microplate reader (Zenith 3100, Anthos Labtech Instruments). The percentage of cytotoxic cells was determined using the formula: cytotoxicity (%) = (1 − (exp. group (ABS))/(control group (ABS)) × 100). IC50 values were calculated using GraphPad Prism 10 software. The selectivity index (SI) was determined using the formula: SI?IC50 value for healthy cells/IC50 value for tumor cells.[9]

HCT-116 cells [2] = experiment: MTT cytotoxicity assay, HCT-116; conditions: for IC50: MTT; for Cytotoxicity range: concentration range 1–100 μM; for Selectivity index (SI): IC50 healthy cells (MRC-5)/IC50 tumor cells
Description: as §1, §2

MRC-5 cells = experiment: MTT cytotoxicity assay, MRC-5 healthy control cells
Description: as §1, §2

HeLa cells [3] = experiment: Annexin V-FITC/7-AAD apoptosis flow cytometry, HeLa; conditions: IC50 concentration, 48 h
Description: (§3) The type of cell death was assessed using flow cytometry using FITC Annexin V Apoptosis Detection Kit with 7-AAD (640922, Bio legend).[8] […] After treatment, cells were harvested, washed with PBS (resuspended in 100 μl of ice-cold 1X binding buffer), stained (20 μl of 7-AAD and 10 μl of Annexin V-FITC), and incubated in the dark for 15 min at +4 °C. After incubation, 400 μl of binding buffer was added and the samples were analyzed using flow cytometer Cytomics FC500 (Beckman Coulter, USA). Data analysis was performed using FlowJo Software and presented with histogram and dot plots.

HCT-116 cells [4] = experiment: Annexin V-FITC/7-AAD apoptosis flow cytometry, HCT-116; conditions: IC50 concentration, 48 h
Description: as §3

[5] = test system: Bax and Bcl-2 in HCT-116 cells; experiment: Flow cytometric analysis of Bax and Bcl-2 expression, HCT-116; conditions: HCT-116, IC50 concentration, 48 h, from MFI
Description: (§4) Cells were washed with PBS, fixed, permeabilized using Fixation and Permeabilization Kit (eBioscience), and stained separately for Bcl-2, Bax, and cleaved-caspase-3.[8,9] Permeabilized cells were incubated with primary antibodies: mouse anti-human-Bcl-2 (DC21, sc-783, Santa Cruz Biotech. Inc.), mouse anti-human Bax (N20, sc-493, Santa Cruz Biotech. Inc.), and anti-cleaved caspase-3 (Cell signaling Technology 9661). Following antibody incubation, cells were washed and incubated with secondary Alexa 488-conjugated antibodies (ab185015, Abcam, United Kingdom) for 30 minutes. After an additional wash with PBS, flow cytometry analysis was performed.
(§5) Data were analyzed using FlowJo Software. The expression of Bcl-2 and Bax proteins was quantified as mean fluorescence intensity (MFI). The results were presented with bar graphs. Bax/Bcl-2 index was calculated using the formula […]. The percentage of cells expressing active caspase-3 (MFI) was presented in histograms.

[6] = test system: Bax and Bcl-2 in HeLa cells; experiment: Flow cytometric analysis of Bax and Bcl-2 expression, HeLa; conditions: IC50 concentration, 48 h, from MFI
Description: as §4, §5

[7] = test system: mitochondrial membrane potential (ΔΨm) in HCT-116 cells; experiment: Mitochondrial membrane potential (ΔΨm) JC-10 analysis, HCT-116; conditions: IC50 concentration, 48 h
Description: (§6) Changes in the ΔΨm caused by 48 hours of enones treatment, were assessed using JC-10 dye.[10]. (Enzo Life Sciences, Farmingdale, NY, USA).
(§7) In healthy cells, JC-10 dye accumulates in the mitochondria as red fluorescent aggregates. However, upon cell damage, changes in ΔΨm occur and result in dislocation of JC-10 from the mitochondria to the cytosol and the monomerization of aggregates, shifting fluorescence from red to green. Cells were cultured in 24-well plate (3 × 10^4 cells per well) overnight in the incubator (5% CO2, 37 °C). […] Following treatment, cells were washed with warm 1xPBS and incubated with JC-10 dye (2.5 μM in warm PBS) at 5% CO2, 37 °C for 20 minutes. Cells were then washed with 1xPBS and observed using an Olympus IX50 inverted fluorescence microscope. Images were captured and analyzed using ImageJ software. The ratio of fluorescence emissions at 525 and 590 nm was used for quantification analysis.

[8] = test system: mitochondrial membrane potential (ΔΨm) in HeLa cells; experiment: Mitochondrial membrane potential (ΔΨm) JC-10 analysis, HeLa; conditions: IC50 concentration, 48 h
Description: as §6, §7

[9] = test system: cytochrome c in HCT-116 cells; experiment: Cytochrome c localization by immunofluorescence, HCT-116; conditions: IC50 concentration, 48 h
Description: After 48 hours of treatment, immunofluorescence analysis of cytochrome c distribution and expression in treated cells was performed using glass coverslips.[10] Following the treatment, cells were washed with PBS, fixed in 4% formaldehyde for 20 min, and permeabilized with 0.2% Tween-20. Blocking was performed using a buffer containing 0.1% Tween-20 and 10% FBS for 30 min. The cells were then incubated for 1 hour at room temperature with a monoclonal mouse anti-human cytochrome c antibody (1:100, G7421, Promega, USA,)
Subsequently, the cells were incubated for 30 minutes with a goat anti-mouse FITC (1:200, diluted in blocking buffer), washed, and images were acquired using an inverted fluorescence microscope (Olympus IX50). Image analysis was performed using ImageJ software.

HCT-116 cells [10] = experiment: Cell cycle analysis (PI, flow cytometry), HCT-116; conditions: IC50 concentration, 48 h; control 27.4%
Description: (§8) After treatment of HCT-116 and HeLa cells with enones, cells were harvested, washed with PBS, and fixed in 70% ice-cold ethanol at +4 °C overnight.[10] The cells were then pelleted, resuspended in 1 ml PBS containing RNAse A (12091021, Sigma Aldrich), and incubated for 30 min at 37 °C. A staining solution containing propidium iodide (1 mg PI per ml PBS) (B7758, Biotrend) was added to cells, followed by 15 min incubation in the dark. Cells were analyzed by flow cytometer Cytomics FC500. DNA content was determined using Flowing Software and cell cycle distribution was presented by graph (histograms).

HeLa cells [11] = experiment: Cell cycle analysis (PI, flow cytometry), HeLa; conditions: IC50 concentration, 48 h; control 29.9%
Description: as §8

N.N.[Cl][Pt][Cl] [CP, Cisplatin, reference compound]
IC50 (HeLa cells [1]; 48 h): 16.5 µM
IC50 (HeLa cells [1]; 72 h): 3.62 ± 0.09 µM
IC50 (HCT-116 cells [2]; HCT-116, 48 h): 13.6 µM
IC50 (HCT-116 cells [2]; HCT-116, 72 h): 7.08 ± 0.13 µM
IC50 (MRC-5 cells; MRC-5, 48 h): > 30 µM
IC50 (MRC-5 cells; MRC-5, 72 h): > 85 µM
total percentage of apoptotic HeLa cells (HeLa cells [3]): 42.38%

COc1cc(/C=C/C(=O)CC(C)C)ccc1OCC(=O)O [E3, (E)-2-(2-Methoxy-4-(5-methyl-3-oxohex-1-en-1-yl)phenoxy)acetic acid]
Selectivity index (SI) (HeLa cells [1]; 48 h): 5.50
Cytotoxicity range (HeLa cells [1]; 48 h): 5.47–33.95%
Selectivity index (SI) (HeLa cells [1]; 72 h): 17.67
Cytotoxicity range (HeLa cells [1]; 72 h): 40.39–59.92%
IC50 (HeLa cells [1]; Homo sapiens, 48 h): 18.2 ± 1.33 µM
IC50 (HeLa cells [1]; Homo sapiens, 72 h): 3.96 ± 0.1 µM
percentage of cytotoxic HCT-116 cells compared to HeLa cells (fold) (HCT-116 cells [2]; 48 h, over the applied doses): 2.05–2.1 fold
percentage of cytotoxic HCT-116 cells compared to control MRC-5 cells (fold) (HCT-116 cells [2]; 48 h, over the applied doses): 4.4–6.9 fold
Cytotoxicity range (HCT-116 cells [2]; HCT-116, 48 h): 11.23–75.08%
Selectivity index (SI) (HCT-116 cells [2]; HCT-116, 48 h): 14.71
Cytotoxicity range (HCT-116 cells [2]; HCT-116, 72 h): 66.85–70.44%
Selectivity index (SI) (HCT-116 cells [2]; HCT-116, 72 h): 42.68
IC50 (HCT-116 cells [2]; Homo sapiens, HCT-116, 48 h): 6.8 ± 1.01 µM
IC50 (HCT-116 cells [2]; Homo sapiens, HCT-116, 72 h): 1.64 ± 0.01 µM
IC50 (MRC-5 cells; Homo sapiens, MRC5, MRC-5, 48 h): > 100 µM
IC50 (MRC-5 cells; Homo sapiens, MRC5, MRC-5, 72 h): > 70 µM
increase of percentage of apoptotic HCT-116 cells compared to control HCT-116 cells (HCT-116 cells [4]): 7.4 fold
percentage of total apoptotic HCT-116 cells (sum of early and late) (HCT-116 cells [4]): 51.68%
total percentage of apoptotic HeLa cells (HeLa cells [3]): 35.63%
Bax/Bcl-2 ratio [5]: 1.6
Bax/Bcl-2 ratio [6]: 0.9
JC10-green/JC10 red ratio in HCT-116 cells [7]: 1.4
JC10-green/JC10 red ratio in HeLa cells [8]: 1.3
RELATIVE RATIO OF CYTOSOL CYTC TO MITOCHONDRIAL CYT C IN HCT-116 CELLS [9]: 1.1
% OF HCT-116 CELLS, G2/M (HCT-116 cells [10]): 54.1%
% OF HELA CELLS, G2/M (HeLa cells [11]): 58.3%
